These molecules were tested on Caenorhabditis elegans (assay: Nematocidal activity against Caenorhabditis elegans assessed as revised death rate after 24 to 48 hrs).
Assay type: functional
Parameters: concentration or dose not given beside the values

Structure (SMILES)	Activity [%]
CC1=CC=CC2(C)CN(C)N(C(=O)N(C)c3ccccc3)N=C12 (stereo unspecified)	74.2
CC1=CC=CC2(C)CN(C)N(C(=S)Nc3ccccc3)N=C12 (stereo unspecified)	20.9
CC1=CC=CC2(C)CN(C)N(C(=S)N(C)c3ccccc3)N=C12 (stereo unspecified)	100
CC(=O)N1N=C2C(C)=CC=CC2(C)CN1C (stereo unspecified)	100
CCCCCCCC(=O)N1N=C2C(C)=CC=CC2(C)CN1C (stereo unspecified)	10.3
CCCCCCCCCC(=O)N1N=C2C(C)=CC=CC2(C)CN1C (stereo unspecified)	64.6
CCCCCCCCCCC(=O)N1N=C2C(C)=CC=CC2(C)CN1C (stereo unspecified)	20.3
CCCCCCCCCCCC(=O)N1N=C2C(C)=CC=CC2(C)CN1C (stereo unspecified)	17.2
CCCCCCCCC(=O)N1N=C2C(C)=CC=CC2(C)CN1C (stereo unspecified)	97
CC1=CC=CC2(C)CN(C)N(C(=O)Nc3ccccc3)N=C12 (stereo unspecified)	43.8
CN=C=S [METHYLISOTHIOCYANATE]	100
